The source of these data is article PMC4854315, “Discovery of a novel allosteric inhibitor-binding site in ERK5: comparison with the canonical kinase hinge ATP-binding site” (Acta Crystallographica. Section D, Structural Biology, 2016).

Holding throughout (assay): Z'-LYTE kinase panel
Type in all cases: biochemical

In one assay the target is T1, CLK2 (Homo sapiens, UniProt P49760).
T1 construct: purchased ThermoFisher (SelectScreen, Z'-LYTE)
Summed up:
(§1)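 The 225-kinase standard panel was run using the Z′-LYTE protocol, and inhibition was expressed as a percentage relative to uninhibited activity at 10 µM compound.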

In the next assay the target is T2, BTK (Homo sapiens, UniProt Q06187).
T2 construct: purchased ThermoFisher (SelectScreen, Z'-LYTE)
Summed up:
as §1

The target of the next assay is T3, HIPK3 (YAK1) (Homo sapiens, UniProt Q9H422).
T3 construct: purchased ThermoFisher (SelectScreen, Z'-LYTE)
In a few lines:
as §1

Another assay addresses T4, LCK (Homo sapiens, UniProt P06239).
T4 construct: purchased ThermoFisher (SelectScreen, Z'-LYTE)
Summed up: as §1

Another assay concerns the target T5, MST1R (RON) (Homo sapiens, UniProt Q04912).
T5 construct: purchased ThermoFisher (SelectScreen, Z'-LYTE)
Summed up: as §1

The next assay deals with T6, PAK2 (PAK65) (Homo sapiens, UniProt Q13177).
T6 construct: purchased ThermoFisher (SelectScreen, Z'-LYTE)
In a few lines: as §1

Another assay concerns the target T7, PLK3 (Homo sapiens, UniProt Q9H4B4).
T7 construct: purchased ThermoFisher (SelectScreen, Z'-LYTE)
Summed up:
as §1

For the next assay, the target named is T8, NEK1 (Homo sapiens, UniProt Q96PY6).
T8 construct: purchased ThermoFisher (SelectScreen, Z'-LYTE)
T8 sequence (Q96PY6 1-1258): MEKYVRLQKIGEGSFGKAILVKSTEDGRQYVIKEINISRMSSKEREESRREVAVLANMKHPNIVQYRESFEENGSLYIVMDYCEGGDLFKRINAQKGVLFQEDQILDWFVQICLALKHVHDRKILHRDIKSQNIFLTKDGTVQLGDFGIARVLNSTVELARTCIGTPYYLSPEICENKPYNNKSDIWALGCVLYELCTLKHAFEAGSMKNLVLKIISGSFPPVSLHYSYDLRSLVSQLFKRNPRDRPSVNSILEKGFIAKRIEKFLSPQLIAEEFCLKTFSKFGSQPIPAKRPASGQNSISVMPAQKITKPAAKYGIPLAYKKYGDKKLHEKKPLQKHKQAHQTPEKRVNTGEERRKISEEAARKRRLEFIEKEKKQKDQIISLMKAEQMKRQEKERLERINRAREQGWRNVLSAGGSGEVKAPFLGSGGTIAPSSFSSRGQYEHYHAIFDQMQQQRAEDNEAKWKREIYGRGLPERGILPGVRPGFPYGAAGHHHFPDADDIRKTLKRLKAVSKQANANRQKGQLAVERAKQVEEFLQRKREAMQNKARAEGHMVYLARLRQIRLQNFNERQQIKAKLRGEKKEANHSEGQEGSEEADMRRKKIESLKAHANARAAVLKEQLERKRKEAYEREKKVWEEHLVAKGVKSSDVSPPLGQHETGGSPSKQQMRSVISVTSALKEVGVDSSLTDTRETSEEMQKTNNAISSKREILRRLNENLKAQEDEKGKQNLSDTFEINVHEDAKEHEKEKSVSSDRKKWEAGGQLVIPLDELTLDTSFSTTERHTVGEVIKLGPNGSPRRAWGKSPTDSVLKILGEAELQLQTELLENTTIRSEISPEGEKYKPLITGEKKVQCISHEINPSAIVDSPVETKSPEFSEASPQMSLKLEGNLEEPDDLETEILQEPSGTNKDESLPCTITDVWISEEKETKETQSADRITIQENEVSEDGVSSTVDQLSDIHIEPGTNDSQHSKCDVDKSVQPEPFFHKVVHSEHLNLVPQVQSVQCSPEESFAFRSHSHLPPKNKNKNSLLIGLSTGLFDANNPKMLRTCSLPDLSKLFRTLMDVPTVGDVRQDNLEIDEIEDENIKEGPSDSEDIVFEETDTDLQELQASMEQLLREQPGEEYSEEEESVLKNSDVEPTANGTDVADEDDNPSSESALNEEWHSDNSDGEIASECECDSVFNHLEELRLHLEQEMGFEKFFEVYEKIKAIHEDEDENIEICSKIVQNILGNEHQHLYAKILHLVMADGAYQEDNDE
Summed up: as §1

Another assay has as its target T9, SGK (SGK1) (Homo sapiens, UniProt O00141).
T9 construct: purchased ThermoFisher (SelectScreen, Z'-LYTE)
T9 sequence (O00141 1-431): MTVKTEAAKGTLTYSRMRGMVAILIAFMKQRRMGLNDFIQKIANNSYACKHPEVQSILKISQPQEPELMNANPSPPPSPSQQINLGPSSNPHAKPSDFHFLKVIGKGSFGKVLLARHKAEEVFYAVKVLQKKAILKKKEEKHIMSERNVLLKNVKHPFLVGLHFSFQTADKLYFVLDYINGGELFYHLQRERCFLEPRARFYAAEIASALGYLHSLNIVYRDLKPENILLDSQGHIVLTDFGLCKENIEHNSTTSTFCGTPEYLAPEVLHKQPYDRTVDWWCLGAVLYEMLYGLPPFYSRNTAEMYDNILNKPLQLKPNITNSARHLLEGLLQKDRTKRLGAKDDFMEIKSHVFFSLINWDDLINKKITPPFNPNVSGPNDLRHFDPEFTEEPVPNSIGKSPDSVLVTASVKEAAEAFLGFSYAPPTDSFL
Summed up:
as §1

The next assay addresses T10, MAP3K8 (COT) (Homo sapiens, UniProt P41279).
T10 construct: purchased ThermoFisher (SelectScreen, Z'-LYTE)
The conditions noted are these: 10 µM compound; ATP 100. Summed up:
as §1

Another assay addresses T11, TEK (Tie2) (Homo sapiens, UniProt Q02763).
T11 construct: purchased ThermoFisher (SelectScreen, Z'-LYTE)
Summed up:
as §1

A further assay has as its target T12, MYLK2 (skMLCK) (Homo sapiens, UniProt Q9H1R3).
T12 construct: purchased ThermoFisher (SelectScreen, Z'-LYTE)
Summed up:
as §1

Another assay has as its target T13, RPS6KA5 (MSK1) (Homo sapiens, UniProt O75582).
T13 construct: purchased ThermoFisher (SelectScreen, Z'-LYTE)
Summed up:
as §1

T7 sequence (Q9H4B4 whole entry): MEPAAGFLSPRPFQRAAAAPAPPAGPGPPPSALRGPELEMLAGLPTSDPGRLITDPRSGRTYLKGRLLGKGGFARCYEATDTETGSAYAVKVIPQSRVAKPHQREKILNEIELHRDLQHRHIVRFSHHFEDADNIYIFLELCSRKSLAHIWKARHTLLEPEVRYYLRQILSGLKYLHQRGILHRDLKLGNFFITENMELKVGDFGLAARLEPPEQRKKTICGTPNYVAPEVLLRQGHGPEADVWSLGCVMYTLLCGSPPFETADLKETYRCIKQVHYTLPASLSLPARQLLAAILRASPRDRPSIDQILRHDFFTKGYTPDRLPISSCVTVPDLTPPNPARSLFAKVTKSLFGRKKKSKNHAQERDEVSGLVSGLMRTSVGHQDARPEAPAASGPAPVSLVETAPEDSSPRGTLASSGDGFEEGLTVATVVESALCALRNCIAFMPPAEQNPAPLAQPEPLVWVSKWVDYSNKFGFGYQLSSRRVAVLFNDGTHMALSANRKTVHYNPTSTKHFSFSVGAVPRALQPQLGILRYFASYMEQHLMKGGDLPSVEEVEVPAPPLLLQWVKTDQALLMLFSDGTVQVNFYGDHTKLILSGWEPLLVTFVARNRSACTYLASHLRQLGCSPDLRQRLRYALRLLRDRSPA
T11 sequence (Q02763 23-1124): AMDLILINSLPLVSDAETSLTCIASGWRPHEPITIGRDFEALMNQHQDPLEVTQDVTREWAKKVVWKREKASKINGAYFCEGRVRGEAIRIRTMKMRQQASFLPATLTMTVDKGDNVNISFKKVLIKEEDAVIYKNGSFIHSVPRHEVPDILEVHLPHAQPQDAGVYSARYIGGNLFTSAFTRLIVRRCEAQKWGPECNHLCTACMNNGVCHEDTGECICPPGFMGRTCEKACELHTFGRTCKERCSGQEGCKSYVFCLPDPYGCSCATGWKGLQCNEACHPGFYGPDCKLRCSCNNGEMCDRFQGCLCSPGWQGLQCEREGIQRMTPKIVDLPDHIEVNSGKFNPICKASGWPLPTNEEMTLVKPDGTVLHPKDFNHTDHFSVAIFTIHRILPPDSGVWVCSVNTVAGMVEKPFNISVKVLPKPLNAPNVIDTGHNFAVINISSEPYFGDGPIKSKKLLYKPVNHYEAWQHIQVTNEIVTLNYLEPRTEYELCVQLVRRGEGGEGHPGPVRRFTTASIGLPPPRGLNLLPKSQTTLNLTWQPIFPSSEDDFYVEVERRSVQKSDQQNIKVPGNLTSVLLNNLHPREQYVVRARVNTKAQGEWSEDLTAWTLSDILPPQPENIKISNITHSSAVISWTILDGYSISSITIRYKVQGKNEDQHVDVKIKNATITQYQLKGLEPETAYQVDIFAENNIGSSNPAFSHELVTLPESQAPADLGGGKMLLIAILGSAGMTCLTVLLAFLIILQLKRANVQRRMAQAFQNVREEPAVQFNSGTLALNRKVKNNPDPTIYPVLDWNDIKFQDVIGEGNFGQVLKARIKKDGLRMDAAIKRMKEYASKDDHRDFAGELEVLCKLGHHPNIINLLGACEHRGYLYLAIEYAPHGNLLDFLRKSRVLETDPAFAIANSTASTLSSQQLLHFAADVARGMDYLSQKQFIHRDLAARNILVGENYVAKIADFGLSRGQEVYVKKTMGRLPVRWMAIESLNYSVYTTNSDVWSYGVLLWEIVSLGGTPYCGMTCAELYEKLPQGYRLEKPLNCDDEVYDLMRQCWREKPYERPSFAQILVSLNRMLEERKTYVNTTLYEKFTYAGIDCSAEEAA
T10 sequence (P41279 whole entry): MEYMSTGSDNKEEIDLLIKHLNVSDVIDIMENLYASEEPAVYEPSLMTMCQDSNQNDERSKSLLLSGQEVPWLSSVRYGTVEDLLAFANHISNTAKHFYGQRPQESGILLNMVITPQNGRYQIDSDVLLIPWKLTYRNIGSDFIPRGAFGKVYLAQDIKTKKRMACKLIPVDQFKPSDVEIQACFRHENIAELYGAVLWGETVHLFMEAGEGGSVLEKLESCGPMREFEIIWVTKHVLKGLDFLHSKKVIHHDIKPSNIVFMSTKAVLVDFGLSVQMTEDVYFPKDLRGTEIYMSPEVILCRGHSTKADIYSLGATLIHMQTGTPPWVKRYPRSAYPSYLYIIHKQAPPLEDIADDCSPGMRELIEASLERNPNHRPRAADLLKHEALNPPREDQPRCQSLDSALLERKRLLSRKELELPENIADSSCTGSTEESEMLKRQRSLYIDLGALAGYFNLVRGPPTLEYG
T3 sequence (Q9H422 whole entry): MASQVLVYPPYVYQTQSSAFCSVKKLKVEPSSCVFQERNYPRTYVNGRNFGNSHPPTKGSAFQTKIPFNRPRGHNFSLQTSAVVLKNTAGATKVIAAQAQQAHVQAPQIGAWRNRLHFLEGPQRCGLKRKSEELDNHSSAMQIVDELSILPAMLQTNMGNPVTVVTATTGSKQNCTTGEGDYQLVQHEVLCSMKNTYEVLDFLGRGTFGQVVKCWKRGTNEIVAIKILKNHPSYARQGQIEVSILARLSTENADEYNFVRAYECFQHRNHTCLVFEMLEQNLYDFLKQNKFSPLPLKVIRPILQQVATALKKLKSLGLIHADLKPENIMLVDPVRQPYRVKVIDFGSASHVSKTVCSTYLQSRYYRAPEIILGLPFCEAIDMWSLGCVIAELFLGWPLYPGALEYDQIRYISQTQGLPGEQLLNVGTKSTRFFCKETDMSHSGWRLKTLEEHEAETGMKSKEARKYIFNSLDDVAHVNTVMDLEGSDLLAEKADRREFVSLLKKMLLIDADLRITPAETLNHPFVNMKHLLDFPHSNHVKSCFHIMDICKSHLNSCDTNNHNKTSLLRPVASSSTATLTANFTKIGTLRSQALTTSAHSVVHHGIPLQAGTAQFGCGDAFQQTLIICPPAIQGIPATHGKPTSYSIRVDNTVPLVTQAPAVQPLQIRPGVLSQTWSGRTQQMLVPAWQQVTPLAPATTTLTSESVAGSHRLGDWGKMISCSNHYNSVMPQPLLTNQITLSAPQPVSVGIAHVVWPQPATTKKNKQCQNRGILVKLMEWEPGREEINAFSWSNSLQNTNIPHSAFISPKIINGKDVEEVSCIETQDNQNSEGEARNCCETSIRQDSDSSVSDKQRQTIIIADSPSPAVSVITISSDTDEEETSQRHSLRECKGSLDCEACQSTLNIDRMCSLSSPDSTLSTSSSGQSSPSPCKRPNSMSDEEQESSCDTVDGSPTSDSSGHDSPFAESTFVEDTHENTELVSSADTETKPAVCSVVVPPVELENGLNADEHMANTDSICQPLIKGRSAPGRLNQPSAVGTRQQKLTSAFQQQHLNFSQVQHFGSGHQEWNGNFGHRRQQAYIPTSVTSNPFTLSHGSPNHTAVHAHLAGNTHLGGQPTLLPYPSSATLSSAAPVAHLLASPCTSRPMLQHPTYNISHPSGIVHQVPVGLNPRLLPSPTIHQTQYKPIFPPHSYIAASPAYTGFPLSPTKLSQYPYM
T1 sequence (P49760 whole entry): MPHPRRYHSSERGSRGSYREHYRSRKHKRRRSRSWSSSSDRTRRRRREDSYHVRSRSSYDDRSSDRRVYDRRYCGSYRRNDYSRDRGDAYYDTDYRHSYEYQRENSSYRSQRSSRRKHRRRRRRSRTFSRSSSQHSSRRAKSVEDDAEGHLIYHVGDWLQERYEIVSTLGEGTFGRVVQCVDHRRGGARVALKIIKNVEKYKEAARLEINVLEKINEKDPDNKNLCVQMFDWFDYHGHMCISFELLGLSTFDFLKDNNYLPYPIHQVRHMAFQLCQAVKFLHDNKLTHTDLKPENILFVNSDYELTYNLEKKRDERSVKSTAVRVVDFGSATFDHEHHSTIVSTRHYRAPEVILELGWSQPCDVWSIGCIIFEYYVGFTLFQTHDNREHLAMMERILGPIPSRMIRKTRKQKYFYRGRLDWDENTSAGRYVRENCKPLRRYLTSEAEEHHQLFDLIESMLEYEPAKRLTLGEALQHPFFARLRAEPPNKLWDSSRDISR
T6 sequence (Q13177 whole entry): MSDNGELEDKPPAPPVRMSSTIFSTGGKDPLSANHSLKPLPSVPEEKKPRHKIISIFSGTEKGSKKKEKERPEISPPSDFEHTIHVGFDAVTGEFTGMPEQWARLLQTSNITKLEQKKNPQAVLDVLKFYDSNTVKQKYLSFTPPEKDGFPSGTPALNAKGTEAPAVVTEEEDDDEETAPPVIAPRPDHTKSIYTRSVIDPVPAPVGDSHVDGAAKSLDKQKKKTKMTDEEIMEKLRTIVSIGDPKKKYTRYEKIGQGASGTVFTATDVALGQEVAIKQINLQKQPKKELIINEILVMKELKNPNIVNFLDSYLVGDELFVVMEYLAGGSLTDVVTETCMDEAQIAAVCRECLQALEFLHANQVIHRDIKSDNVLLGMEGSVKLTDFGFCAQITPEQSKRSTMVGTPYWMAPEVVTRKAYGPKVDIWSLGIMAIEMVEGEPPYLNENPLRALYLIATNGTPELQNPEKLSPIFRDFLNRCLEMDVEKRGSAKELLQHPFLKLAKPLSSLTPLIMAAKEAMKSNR
T4 sequence (P06239 whole entry): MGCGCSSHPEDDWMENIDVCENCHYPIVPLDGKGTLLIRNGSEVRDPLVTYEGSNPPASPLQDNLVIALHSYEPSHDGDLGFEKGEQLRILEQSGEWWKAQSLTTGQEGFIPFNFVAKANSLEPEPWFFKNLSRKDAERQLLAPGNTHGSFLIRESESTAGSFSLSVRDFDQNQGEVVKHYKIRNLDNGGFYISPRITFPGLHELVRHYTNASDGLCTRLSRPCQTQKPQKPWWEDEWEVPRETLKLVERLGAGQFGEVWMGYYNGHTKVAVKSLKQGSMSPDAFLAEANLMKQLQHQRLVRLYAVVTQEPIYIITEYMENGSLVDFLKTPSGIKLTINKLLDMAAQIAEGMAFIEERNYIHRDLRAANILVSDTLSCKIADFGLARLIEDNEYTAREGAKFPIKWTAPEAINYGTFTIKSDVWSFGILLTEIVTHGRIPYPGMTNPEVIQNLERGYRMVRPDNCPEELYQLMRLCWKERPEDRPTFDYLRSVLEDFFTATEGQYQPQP

One may read the inhibition as the change of the read-out against control, counted positive when it falls. On to `Cc1ncc(-c2nc(Nc3ccc(C(=O)NCCN4CCCCC4)cc3)ncc2F)n1C(C)C` [Compound 3], for which the inhibition at 10 µM against CLK2 worked out at 92%; at BTK, 59%; on HIPK3 (YAK1), 88%; on LCK, 94%; against MST1R (RON) it was 67%; on PAK2 (PAK65), 54%. In addition, the inhibition at 10 µM was found to be 73% against PLK3; 6.39% on NEK1; 91% on SGK (SGK1); 89% against MAP3K8 (COT); 73% at TEK (Tie2); 78% on MYLK2 (skMLCK). Besides, on RPS6KA5 (MSK1), the inhibition at 10 µM was determined as 86%.
Turning to `Cc1cc(Nc2nc(N)nn2C(=O)NC(C)C)ccc1Cl` [Compound 5], the inhibition at 10 µM was 39% on CLK2; 11% against BTK; 6.56% on HIPK3 (YAK1); 29% at LCK; 1.17% on MST1R (RON); -1.24% against PAK2 (PAK65). Besides, the inhibition at 10 µM on PLK3 is 18%; against NEK1, 21%; at SGK (SGK1), 9%; against MAP3K8 (COT), -2.72%; against TEK (Tie2), 40%; at MYLK2 (skMLCK), -0.775%. For the same molecule, the inhibition at 10 µM against RPS6KA5 (MSK1) is 6.35%.
Take “XMD8-92 [Compound 2, reference compound]”: the “CLK2 % Inhibition” value at CLK2 (10 µM compound, ATP Km app) was 6%. Further, the “BTK % Inhibition” value on BTK (10 µM compound, ATP Km app) is 35%. In addition, the “HIPK3 (YAK1) % Inhibition” value on HIPK3 (YAK1) (10 µM compound, ATP Km app) is on record as 1.8%. Moreover, on LCK (10 µM compound, ATP Km app), the “LCK % Inhibition” value is reported as 15%. Besides, the “MST1R (RON) % Inhibition” value at MST1R (RON) (10 µM compound, ATP Km app) was found to be 37%. Besides, the “PAK2 (PAK65) % Inhibition” value on PAK2 (PAK65) (10 µM compound, ATP Km app) is 12%. At PLK3 (10 µM compound, ATP Km app), the “PLK3 % Inhibition” value was 99%. Further, the “NEK1 % Inhibition” value at NEK1 (10 µM compound, ATP Km app) is -9%. The “SGK (SGK1) % Inhibition” value on SGK (SGK1) (10 µM compound, ATP Km app) is 66%. For the same molecule, the “MAP3K8 (COT) % Inhibition” value on MAP3K8 (COT) is 3.36%. In addition, the “TEK (Tie2) % Inhibition” value at TEK (Tie2) (10 µM compound, ATP Km app) is given as 6.54%. Moreover, on MYLK2 (skMLCK) (10 µM compound, ATP Km app), the “MYLK2 (skMLCK) % Inhibition” value was 42%. The “RPS6KA5 (MSK1) % Inhibition” value on RPS6KA5 (MSK1) (10 µM compound, ATP Km app) is listed as 47%.
